According to BindingDB's records for patent US20250188075 (The Broad Institute, 2025):

Tests used:
[1] = molecular target: Casein kinase I isoform delta (Homo sapiens, UniProt P48730); experiment: CSNK1D-Inhibitory Activity Assay
Description: For the assay 50 nl of a 100-fold concentrated solution of the test compound in DMSO was pipetted into a white 1536-well microtiter plate (Greiner Bio-One, Frickenhausen, Germany), 2 μL of a solution of CSNK1D in aqueous assay buffer [50 mM HEPES pH 7.5, 10% (v/v) glycerol, 10 mM MgCl2, 50 mM NaCl, 1 mM dithiothreitol, 0.01% (w/v) bovine serum albumin, 0.01% (v/v) Triton X-100] were added and the mixture was incubated for 15 min at 22° C. to allow pre-binding of the test compounds to the enzyme before the start of the kinase reaction. Then the kinase reaction was started by the addition of 3 μL of a solution of ATP (1.67 μM=>final conc. in the 5 μL assay volume is 1 μM) and peptide substrate (50 μM=>final conc. in the 5 μL assay volume is 30 μM) in assay buffer and the resulting mixture was incubated for a reaction time of 30 min at 22° C. The concentration of CSNK1D was adjusted depending of the activity of the enzyme lot and was chosen appropriate to have the assay in the linear range, a typical concentration is about 0.5 ng/μL. […] Subsequently 2.5 μL of the “kinase detection reagent” (1.2 fold more concentrated than recommended by the producer) were added, the resulting mixture was incubated at 22° C. for 1 h and then the luminescence measured with a suitable measurement instrument (e.g. Viewlux™ from Perkin-Elmer). […]

[2] = molecular target: Casein kinase I isoform gamma-3 (Homo sapiens, UniProt Q9Y6M4); experiment: CSNK1G3-Inhibitory Activity Assay
Description: For the assay 50 nl of a 100 fold concentrated solution of the test compound in DMSO was pipetted into a white 1536-well microtiter plate (Greiner Bio-One, Frickenhausen, Germany), 2 μL of a solution of CSNK1G3 in aqueous assay buffer [50 mM HEPES pH 7.5, 10% (v/v) glycerol, 10 mM MgCl2, 50 mM NaCl, 1 mM dithiothreitol, 0.01% (w/v) bovine serum albumin, 0.01% (v/v) Triton X-100] were added and the mixture was incubated for 15 min at 22° C. to allow pre-binding of the test compounds to the enzyme before the start of the kinase reaction. Then the kinase reaction was started by the addition of 3 μL of a solution of ATP ([…]) and peptide substrate (50 μM=>final conc. in the 5 μL assay volume is 30 μM) in assay buffer and the resulting mixture was incubated for a reaction time of 30 min at 22° C. The concentration of CSNK1G3 was adjusted depending of the activity of the enzyme lot and was chosen appropriate to have the assay in the linear range, a typical concentration is about 0.06 ng/μL. […] Subsequently 2.5 μL of the “kinase detection reagent” (1.2 fold more concentrated than recommended by the producer) were added, the resulting mixture was incubated at 22° C. for 1 h and then the luminescence measured with a suitable measurement instrument (e.g. Viewlux™ from Perkin-Elmer). […]

[3] = molecular target: T1, Casein kinase I isoform alpha (Homo sapiens, UniProt P48729); experiment: CSNK1A1-Inhibitory Activity Assay (Low ATP)
Description: For the assay 50 nl of a 100-fold concentrated solution of the test compound in DMSO was pipetted into a white 1536-well microtiter plate (Greiner Bio-One, Frickenhausen, Germany), 2 μL of a solution of CSNK1A1 in aqueous assay buffer [50 mM HEPES pH 7.5, 10% (v/v) glycerol, 10 mM MgCl2, 50 mM NaCl, 1 mM dithiothreitol, 0.01% (w/v) bovine serum albumin, 0.01% (v/v) Triton X-100] were added and the mixture was incubated for 15 min at 22° C. to allow pre-binding of the test compounds to the enzyme before the start of the kinase reaction. Then the kinase reaction was started by the addition of 3 μL of a solution of ATP (1.67 μM=>final conc. in the 5 μL assay volume is 1 μM) and peptide substrate (50 μM=>final conc. in the 5 μL assay volume is 30 μM) in assay buffer and the resulting mixture was incubated for a reaction time of 30 min at 22° C. The concentration of CSNK1A1 was adjusted depending of the activity of the enzyme lot and was chosen appropriate to have the assay in the linear range, a typical concentrations are about 0.0375 ng/μL. […] Subsequently 2.5 μL of the “kinase detection reagent” (1.2 fold more concentrated than recommended by the producer) were added, the resulting mixture was incubated at 22° C. for 1 h and then the luminescence measured with a suitable measurement instrument (e.g. Viewlux™ from Perkin-Elmer). […]

[4] = molecular target: T1, Casein kinase I isoform alpha; experiment: CSNK1A1-Inhibitory Activity Assay (High ATP)
Description: For the assay 50 nl of a 100 fold concentrated solution of the test compound in DMSO was pipetted into a white low volume 384-well microtiter plate (Greiner Bio-One, Frickenhausen, Germany), 2 μL of a solution of CSNK1A1 in aqueous assay buffer [50 mM HEPES pH 7.5, 10% (v/v) glycerol, 10 mM MgCl2, 50 mM NaCl, 1 mM dithiothreitol, 0.01% (w/v) bovine serum albumin, 0.01% (v/v) Triton X-100] were added and the mixture was incubated for 15 min at 22° C. to allow pre-binding of the test compounds to the enzyme before the start of the kinase reaction. Then the kinase reaction was started by the addition of 3 μL of a solution of ATP (1.67 mM=>final conc. in the 5 μL assay volume is 1 mM) and peptide substrate (167 μM=>final conc. in the 5 μL assay volume is 100 μM) in assay buffer and the resulting mixture was incubated for a reaction time of 30 min at 22° C. The concentration of CSNK1A1 was adjusted depending of the activity of the enzyme lot and was chosen appropriate to have the assay in the linear range, a typical concentration is about 0.4 ng/μL. […] Subsequently 2.5 μL of the “kinase detection reagent” (1.2 fold more concentrated than recommended by the producer) were added, the resulting mixture was incubated at 22° C. for 1 h and then the luminescence measured with a suitable measurement instrument (e.g. Viewlux™ from Perkin-Elmer). […]

T1 sequence (P48729 whole entry, canonical isoform): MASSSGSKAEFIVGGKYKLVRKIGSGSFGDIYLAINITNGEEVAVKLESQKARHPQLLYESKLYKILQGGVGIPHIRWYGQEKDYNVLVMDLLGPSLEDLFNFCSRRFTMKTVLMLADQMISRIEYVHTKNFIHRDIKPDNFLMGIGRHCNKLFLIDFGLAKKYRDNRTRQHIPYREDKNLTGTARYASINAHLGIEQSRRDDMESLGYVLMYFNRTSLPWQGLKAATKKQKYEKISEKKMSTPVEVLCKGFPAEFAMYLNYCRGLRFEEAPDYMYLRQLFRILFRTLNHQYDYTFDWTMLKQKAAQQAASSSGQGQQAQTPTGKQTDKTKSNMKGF
Sequence of Casein kinase I isoform gamma-3 (Q9Y6M4 whole entry, canonical isoform): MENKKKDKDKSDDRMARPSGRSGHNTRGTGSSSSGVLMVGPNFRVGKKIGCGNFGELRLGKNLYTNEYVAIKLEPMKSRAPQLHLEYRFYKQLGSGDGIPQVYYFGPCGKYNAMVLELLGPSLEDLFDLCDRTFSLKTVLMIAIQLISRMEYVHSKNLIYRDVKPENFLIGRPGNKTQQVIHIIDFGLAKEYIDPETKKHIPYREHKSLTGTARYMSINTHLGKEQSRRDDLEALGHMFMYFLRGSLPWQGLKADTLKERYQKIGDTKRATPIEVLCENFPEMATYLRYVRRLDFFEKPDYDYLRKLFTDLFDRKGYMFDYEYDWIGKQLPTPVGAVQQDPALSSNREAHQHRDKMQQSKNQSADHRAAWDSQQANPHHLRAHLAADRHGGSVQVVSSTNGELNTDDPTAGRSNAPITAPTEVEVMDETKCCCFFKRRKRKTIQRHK
Sequence of Casein kinase I isoform delta (P48730 whole entry, canonical isoform): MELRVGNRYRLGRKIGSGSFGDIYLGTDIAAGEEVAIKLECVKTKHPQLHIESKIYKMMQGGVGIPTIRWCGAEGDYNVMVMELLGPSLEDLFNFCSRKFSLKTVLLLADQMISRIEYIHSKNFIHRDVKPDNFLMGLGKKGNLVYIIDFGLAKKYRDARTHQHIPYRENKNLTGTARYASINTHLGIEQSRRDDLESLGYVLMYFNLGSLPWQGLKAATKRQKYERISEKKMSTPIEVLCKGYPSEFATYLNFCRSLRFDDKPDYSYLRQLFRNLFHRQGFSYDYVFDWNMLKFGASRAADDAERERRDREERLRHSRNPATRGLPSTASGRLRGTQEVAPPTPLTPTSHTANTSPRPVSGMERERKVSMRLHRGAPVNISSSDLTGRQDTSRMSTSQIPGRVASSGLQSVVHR

- IC50 [1]: 5.22 nM
- IC50 [2]: 50.3 nM
- IC50 [3]: 1.82 nM
- IC50 [4]: 47 nM
Structure (SMILES): O=C(Cc1cnco1)Nc1cc(-c2[nH]c3cccnc3c2-c2ccccn2)ccn1 [US20250188075, Example 4]
